Data published in ChEMBL document CHEMBL1129698, “Homo-N-nucleosides: Incorporation into oligonucleotides and antiviral activity” (1996).
Converted amounts (≈) assume the structure as drawn.

Experiments:
Assay type in all cases: functional
[1] = Minimum cytotoxic concentration required to cause a microscopically detectable alteration of normal cell morphology
Human alphaherpesvirus 1 [2] = assay: Compound was tested for the antiviral activity against herpes simplex virus-1 (HSV-1) KOS strain
Human alphaherpesvirus 1 [3] = assay: Compound was tested for the antiviral activity against herpes simplex virus-1 thymidine kinase deficient (HSV-1 TK-) B2006 strain
Human alphaherpesvirus 2 = assay: Compound was tested for the antiviral activity against herpes simplex virus-2 (HSV-2) G strain
Human alphaherpesvirus 1 [4] = assay: Compound was tested for the antiviral activity against herpes simplex virus-1 thymidine kinase deficient (HSV-1 TK-) VMW 1837 strain

Compound | MIC [1] [µg/mL] | MIC (Human alphaherpesvirus 1 [2]) [µg/mL] | MIC (Human alphaherpesvirus 1 [3]) [µg/mL] | MIC (Human alphaherpesvirus 2) [µg/mL] | MIC (Human alphaherpesvirus 1 [4]) [µg/mL]
NC1=NC(=O)C2N=CN(C[C@H]3C[C@H](O)[C@@H](CO)O3)C2=N1 (stereo not given in full) | > 400 | 5 (≈ 17.8 µM) | 12 (≈ 42.7 µM) | 5 (≈ 17.8 µM) | 12 (≈ 42.7 µM)
Nc1ncnc2c1ncn2C[C@H]1C[C@H](O)[C@@H](CO)O1 | > 400 | 20 (≈ 75.4 µM) | 10 (≈ 37.7 µM) | 6 (≈ 22.6 µM) | 8 (≈ 30.2 µM)
Nc1nc2c(ncn2COCCO)c(=O)[nH]1 [ACYCLOVIR] | > 400 | 0.02 (≈ 0.0888 µM) | 80 (≈ 355 µM) | 0.03 (≈ 0.133 µM) | 4 (≈ 17.8 µM)
O=c1[nH]c(=O)n([C@H]2C[C@H](O)[C@@H](CO)O2)cc1/C=C/Br [BRIVUDINE] | 200 (≈ 600 µM) | 0.007 (≈ 0.021 µM) | 20 (≈ 60 µM) | > 100 | 30 (≈ 90.1 µM)
